Data published in patent US20100298302A1, “NOVEL PROTEIN KINASE MODULATORS” (priority 2009, published 2010).
Read-outs that look alike come from different tables or passages of the source.

Tests used:
[1] = tested on: PC-3 human prostatic cancer cells; assay: Alamar Blue cell proliferation assay, PC3; type: cell-based
Protocol: (§1) A representative cell-proliferation assay protocol using Alamar Blue dye (stored at 4° C., use 20 ul per well) is described hereafter.
(§2) a. Split and trypsinize cells.
(§3) b. Count cells using hemocytometer.
(§4) c. Plate 4,000-5,000 cells per well in 100 μl of medium and seed into a 96-well plate according to the following plate layout. Add cell culture medium only to wells B10 to B12. Wells B1 to B9 have cells but no compound added.
(§5) d. Add 100 μl of 2× drug dilution to each well in a concentration shown in the plate layout above. At the same time, add 100 μl of media into the control wells (wells B10 to B12). Total volume is 200 μl/well.
(§6) e. Incubate four (4) days at 37° C., 5% CO2 in a humidified incubator.
(§7) f. Add 20 μl Alamar Blue reagent to each well.
(§8) g. Incubate for four (4) hours at 37° C., 5% CO2 in a humidified incubator.
(§9) h. Record fluorescence at an excitation wavelength of 544 nm and emission wavelength of 590 nm using a microplate reader.
(§10) In the assays, cells are cultured with a test compound for approximately four days, the dye is then added to the cells and fluorescence of […] dye is detected after approximately four hours. Different types of cells can be utilized in the assays (e.g., HCT-116 human colorectal carcinoma cells, PC-3 human prostatic cancer cells, MDA-MB231 human breast cancer cells, K-562 human chronic myelogenous leukemia (CML) cells, MiaPaca human pancreatic carcinoma cells, MV-4 human acute myeloid leukemia cells, and BxPC3 human pancreatic adenocarcinoma cells).

[2] = tested on: K-562 human chronic myelogenous leukemia (CML) cells; assay: Alamar Blue cell proliferation assay, K-562; type: cell-based
Protocol: as §1, §2, §3, §4, §5, §6, §7, §8, §9, §10

[3] = tested on: MiaPaca human pancreatic carcinoma cells; assay: Alamar Blue cell proliferation assay, MiaPaCa; type: cell-based; conditions: MIA PaCa-2
Protocol: as §1, §2, §3, §4, §5, §6, §7, §8, §9, §10

recombinant PIM-1 = recombinant PIM-1 (Homo sapiens, UniProt P11309); assay: PIM-1 kinase assay; type: biochemical; conditions: for inhibition at 0.5 µM: 500 nM compound, read-out: PIM1: % inh 500 nM
Chain of recombinant PIM-1 (P11309 whole entry): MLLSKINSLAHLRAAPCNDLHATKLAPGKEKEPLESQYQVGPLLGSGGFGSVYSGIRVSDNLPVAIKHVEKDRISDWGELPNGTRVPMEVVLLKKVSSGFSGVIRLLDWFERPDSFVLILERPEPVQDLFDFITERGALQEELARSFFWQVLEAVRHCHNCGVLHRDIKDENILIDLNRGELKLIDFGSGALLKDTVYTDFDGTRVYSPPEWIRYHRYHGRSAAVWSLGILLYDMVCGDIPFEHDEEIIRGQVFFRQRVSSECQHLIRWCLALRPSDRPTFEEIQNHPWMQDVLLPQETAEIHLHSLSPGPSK
Protocol: The following procedure was used to assay the PIM-1 kinase activity of compounds of the invention. Other methods for assaying PIM-1 and other PIM kinases, as well as methods to assay for activity against various kinases known in the art.
In a final reaction volume of 50 ul, recombinant PIM-1 (1 ng) was incubated with 12 mM MOPS pH 7.0, 0.4 mM EDTA, glycerol 1%, brij 35 0.002%, 2-mercaptoethanol 0.02%, BSA 0.2 mg/ml, 100 uM KKRNRTLTK, 10 mM MgAcetate, 15 uM ATP, [γ-^33P-ATP] (specific activity approx. 500 cpm/pmol), DMSO 4% and test inhibitor compound at the required concentration. The reaction was initiated by the addition of the Magnesium ATP mixture. After 40 min incubation at 23° C., the reactions were quenched by the addition of 100 ul 0.75% Phosphoric acid, and the labeled peptide collected by filtration through a phosphocellulose filter plate. The plate was washed 4 times with 0.075% phosphoric acid (100 ul per well) and then, after the addition of scintillation fluid (20 ul per well), the counts were measured by a scintillation counter.

MV-4-11 = assay: Alamar Blue cell proliferation assay, MV-4-11; type: cell-based; conditions: Homo sapiens, MV4-11
Protocol: as §1, §2, §3, §4, §5, §6, §7, §8, §9, §10

MDA-MB45 = assay: Alamar Blue cell proliferation assay, MDA-MB45; type: cell-based
Protocol: as §1, §2, §3, §4, §5, §6, §7, §8, §9, §10

SUM-149PT = assay: Alamar Blue cell proliferation assay, SUM-149PT; type: cell-based; conditions: Homo sapiens, SUM149PT
Protocol: as §1, §2, §3, §4, §5, §6, §7, §8, §9, §10

recombinant human CK2 = molecular target: T1, recombinant human CK2 (Homo sapiens, UniProt P68400); assay: cell-free CK2 assay; type: biochemical
T1 construct: purchased Upstate
T1 sequence (P68400 whole entry): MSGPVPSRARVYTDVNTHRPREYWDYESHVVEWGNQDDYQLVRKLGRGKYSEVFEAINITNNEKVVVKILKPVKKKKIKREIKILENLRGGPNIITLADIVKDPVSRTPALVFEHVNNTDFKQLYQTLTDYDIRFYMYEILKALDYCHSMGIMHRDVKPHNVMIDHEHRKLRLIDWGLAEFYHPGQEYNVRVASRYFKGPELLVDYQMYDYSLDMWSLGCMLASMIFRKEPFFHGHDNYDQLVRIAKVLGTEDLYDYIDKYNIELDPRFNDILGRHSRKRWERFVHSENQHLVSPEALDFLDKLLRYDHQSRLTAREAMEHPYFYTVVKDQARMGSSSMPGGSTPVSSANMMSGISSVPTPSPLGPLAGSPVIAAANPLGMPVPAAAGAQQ
T1 sequence (P67870 whole entry partner): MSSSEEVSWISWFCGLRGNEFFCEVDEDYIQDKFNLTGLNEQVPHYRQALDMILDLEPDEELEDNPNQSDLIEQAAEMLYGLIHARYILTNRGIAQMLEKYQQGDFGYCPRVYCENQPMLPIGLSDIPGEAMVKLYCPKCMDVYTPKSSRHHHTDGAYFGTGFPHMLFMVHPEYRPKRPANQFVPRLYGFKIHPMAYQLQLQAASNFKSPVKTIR
Protocol: Modulatory activity of compounds described herein was assessed in vitro in cell-free CK2 assays by the following method.
Test compounds in aqueous solution were added at a volume of 10 microliters, to a reaction mixture comprising 10 microliters Assay Dilution Buffer (ADB; 20 mM MOPS, pH 7.2, 25 mM beta-glycerolphosphate, 5 mM EGTA, 1 mM sodium orthovanadate and 1 mM dithiothreitol), 10 microliters of substrate peptide (RRRDDDSDDD, dissolved in ADB at a concentration of 1 mM), 10 microliters of recombinant human CK2 (25 ng dissolved in ADB; Upstate). Reactions were initiated by the addition of 10 microliters of ATP Solution (90% 75 mM MgCl2, 75 micromolar ATP dissolved in ADB; 10% [γ-^33P]ATP (stock 1 mCi/100 μl; 3000 Ci/mmol (Perkin Elmer) and maintained for 10 minutes at 30 degrees C. The reactions were quenched with 100 microliters of 0.75% phosphoric acid, then transferred to and filtered through a phosphocellulose filter plate (Millipore). After washing each well 5 times with 0.75% phosphoric acid, the plate was dried under vacuum for 5 min and, following the addition of 15 ul of scintilation fluid to each well, the residual radioactivity was measured using a Wallac luminescence counter.

[4] = tested on: BxPC3 human pancreatic adenocarcinoma cells; assay: Alamar Blue cell proliferation assay, BxPC3; type: cell-based; conditions: BXPC-3
Protocol: as §1, §2, §3, §4, §5, §6, §7, §8, §9, §10

recombinant human PIM2 = recombinant human PIM2 (Homo sapiens, UniProt Q9P1W9); assay: PIM-2 kinase assay; type: biochemical
Chain of recombinant human PIM2 (Q9P1W9 whole entry): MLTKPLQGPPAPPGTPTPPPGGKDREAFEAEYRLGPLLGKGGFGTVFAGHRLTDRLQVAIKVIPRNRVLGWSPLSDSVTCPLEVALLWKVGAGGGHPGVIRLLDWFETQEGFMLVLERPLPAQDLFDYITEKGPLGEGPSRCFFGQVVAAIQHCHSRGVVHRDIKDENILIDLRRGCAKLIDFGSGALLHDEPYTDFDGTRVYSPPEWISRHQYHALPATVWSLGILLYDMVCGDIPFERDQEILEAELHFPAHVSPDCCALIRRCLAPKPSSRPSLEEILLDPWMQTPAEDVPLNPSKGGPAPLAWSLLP
Protocol: Test compounds dissolved and diluted in DMSO (2 μl) were added to a reaction mixture comprising 10 μl of 5× Reaction Buffer (40 mM MOPS pH 7.0, 5 mM EDTA), 10 μl of recombinant human PIM2 solution (4 ng PIM-2 dissolved in dilution buffer (20 mM MOPS pH 7.0; EDTA 1 mM; 5% Glycerol; 0.01% Brij 35; […]; […] 2-mercaptoethanol; 1 mg/ml BSA)) and 8 ul of water. Reactions were initiated by the addition of 10 ul of ATP Solution ([…] (15 mM MgCl2; 75 uM ATP) 1% ([γ-33P]ATP: Stock 1 mCi/100 μl; 3000 Ci/mmol (Perkin Elmer)) and 10 ul of substrate peptide solution (RSRSSYPAGT, dissolved in water at a concentration of 1 mM), Reactions were maintained for 10 min at 30° C. The reactions were quenched with 100 ul of 0.75% Phosphoric acid, then transferred to and filtered through a Phosphocellulose filter plate (Millipore, MSPH-N6B-50). After washing each well 4 times with 0.75% Phosphoric acid, scintillation fluid (20 uL) was added to each well and the residual radioactivity was measured using a Wallac luminescence counter.

[5] = 15 μM ATP, read-out: PIM1: IC50 (15 μM ATP)

SMILES | IC50 [1] [µM] | IC50 ([2]; K562, Table 4) [µM] | IC50 [3] [µM] | inhibition at 0.5 µM (recombinant PIM-1) [%] | IC50 (recombinant PIM-1; [5]) [µM] | IC50 (MV-4-11; Table 4) [µM] | IC50 (MDA-MB45) [µM] | IC50 (recombinant human CK2) [µM] | IC50 ([2]; K562, Table 5) [µM] | IC50 (recombinant PIM-1; Table 5, read-out: PIM1 IC50) [µM] | IC50 [4] [µM] | IC50 (MV-4-11; Table 5) [µM] | IC50 (recombinant human PIM2) [µM] | IC50 (SUM-149PT) [µM]
c1ccc(Nc2nc3c(-c4nnc[nH]4)cccc3n3cccc23)cc1 |  |  |  |  |  |  | 15.1 | < 0.1 | > 30 | < 0.1 | > 30 | < 5 | < 0.1 | > 30
CN(c1ccccc1F)c1nc2cc(-c3nnn[nH]3)ccc2n2cccc12 | > 10 | > 10 | > 10 | 51.4 | 0.774 | > 10 |  |  |  |  |  |  |  | 
CN(c1cccc(Cl)c1)c1nc2cc(C(=O)O)ccc2n2cccc12 | > 10 | > 10 | > 10 | 49.7 |  | > 10 |  |  |  |  |  |  |  | 
Clc1cccc(Nc2nc3cc(-c4nnn[nH]4)ccc3n3cccc23)c1 | > 10 | > 10 | 9.37 | 77.4 | 0.15 | 4.98 |  |  |  |  |  |  |  | 
N#Cc1cccc(Nc2nc3cc(C(=O)O)ccc3n3cccc23)c1 | > 10 | > 10 | > 10 | 92.3 | 0.115 | > 10 |  |  |  |  |  |  |  | 
Clc1ccccc1Nc1nc2cc(-c3nnn[nH]3)ccc2n2cccc12 | > 10 | > 10 | > 10 | 59.3 | 0.466 | > 10 |  |  |  |  |  |  |  | 
O=C(O)c1ccc2c(c1)nc(Nc1cc(F)cc(Cl)c1)c1cccn12 | > 10 | > 10 | > 10 | 83.9 | 0.119 | 8.55 |  |  |  |  |  |  |  | 
O=C(O)c1ccc2c(c1)nc(Nc1cccc(Cl)c1)c1cccn12 | > 10 | > 10 | 8.92 | 95.4 | 0.095 | 2.93 |  |  |  |  |  |  |  | 
Fc1ccc(Nc2nc3c(-c4nnc[nH]4)cccc3n3cccc23)c(Cl)c1 |  |  |  |  |  |  |  | < 1 |  | < 0.1 |  |  | < 0.1 | 
Fc1ccccc1Nc1nc2c(-c3nnc[nH]3)cccc2n2cncc12 |  |  |  |  |  |  | < 5 | < 0.1 | < 10 |  | 15.1 | < 1 | < 0.1 | < 10
CN(c1cccc(Cl)c1)c1nc2cc(-c3nnn[nH]3)ccc2n2cccc12 | > 10 | > 10 | > 10 | 6.59 |  | > 10 |  |  |  |  |  |  |  | 
O=C(O)c1ccc2c(c1)nc(Nc1cccc(F)c1)c1cccn12 | > 10 | > 10 | > 10 | 78.1 | 0.156 | > 10 |  |  |  |  |  |  |  | 
Brc1cccc(Nc2nc3c(-c4nnc[nH]4)cccc3n3cccc23)c1 |  |  |  |  |  |  |  | < 0.1 |  | < 0.1 |  |  | < 0.1 | 
Fc1cc(F)cc(Nc2nc3cc(-c4nnn[nH]4)ccc3n3cccc23)c1 | > 10 | > 10 | > 10 | 63.8 | 0.514 | 7.77 |  |  |  |  |  |  |  | 
CN(c1ccccc1)c1nc2cc(-c3nnn[nH]3)ccc2n2cccc12 | > 10 | > 10 | > 10 | 15.3 |  | > 10 |  |  |  |  |  |  |  | 
CCOC(=O)c1cccc2c1nc(Nc1ccccc1F)c1cccn12 |  |  |  |  |  |  |  | > 5 |  | > 2.5 |  |  | > 2.5 | 
Cc1ccccc1Nc1nc2cc(C(=O)O)ccc2n2cccc12 | > 10 | > 10 | > 10 | 43.8 |  | > 10 |  |  |  |  |  |  |  | 
NC(=O)c1cccc2c1nc(Nc1ccccc1Cl)c1cccn12 |  |  |  |  |  |  |  | < 1 |  | < 0.1 |  |  | < 1 | 
CC(C)(C)OC(=O)OCc1cccc2c1nc(N(C(=O)OC(C)(C)C)c1ccccc1F)c1cccn12 |  |  |  |  |  |  |  | > 5 |  | > 2.5 |  |  | > 2.5 | 

Further lines, with some results ahead:

IC50 [1] [µM] | IC50 ([2]; K562, Table 4) [µM] | IC50 [3] [µM] | inhibition at 0.5 µM (recombinant PIM-1) [%] | IC50 (recombinant PIM-1; [5]) [µM] | IC50 (MV-4-11; Table 4) [µM] | IC50 (MDA-MB45) [µM] | IC50 (recombinant human CK2) [µM] | IC50 ([2]; K562, Table 5) [µM] | IC50 (recombinant PIM-1; Table 5, read-out: PIM1 IC50) [µM] | IC50 [4] [µM] | IC50 (MV-4-11; Table 5) [µM] | IC50 (recombinant human PIM2) [µM] | SMILES | IC50 (SUM-149PT) [µM]
> 10 | > 10 | > 10 | 79 | 0.354 | > 10 |  |  |  |  |  |  |  | COc1cccc(Nc2nc3cc(C(=O)O)ccc3n3cccc23)c1 | 
> 10 | > 10 | > 10 | 70 | 0.29 | > 10 |  |  |  |  |  |  |  | Fc1cccc(Nc2nc3cc(-c4nnn[nH]4)ccc3n3cccc23)c1 | 
> 10 | > 10 | > 10 | 25 |  | > 10 |  |  |  |  |  |  |  | Clc1cccc(-c2nc3cc(-c4nnn[nH]4)ccc3n3cccc23)c1 | 
> 10 | > 10 | > 10 | 45.2 |  | 6.58 |  |  |  |  |  |  |  | FC(F)(F)c1cccc(Nc2nc3cc(-c4nnn[nH]4)ccc3n3cccc23)c1 | 
 | > 10 | > 10 | 43.2 | 0.239 | > 10 |  |  |  |  |  |  |  | O=C(O)c1ccc2c(c1)nc(Nc1ccc3ncccc3c1)c1cccn12 | 
> 10 | > 10 | > 10 | 52.4 | 0.676 | > 10 |  |  |  |  |  |  |  | Cc1ccccc1Nc1nc2cc(-c3nnn[nH]3)ccc2n2cccc12 | 
> 10 | > 10 | > 10 | 50.1 | 0.554 | > 10 |  |  |  |  |  |  |  | O=C(O)c1ccc2c(c1)nc(NCCn1cccc1)c1cccn12 | 
 | > 10 | > 10 | 69.3 | 0.229 | > 10 |  |  |  |  |  |  |  | NC(=O)c1cc(F)cc(Nc2nc3cc(C(=O)O)ccc3n3cccc23)c1 | 
8.31 | 5.24 | 1.29 | 20.1 |  | 2.73 |  |  |  |  |  |  |  | CN(C)CCNc1nc2cc(C#N)ccc2n2cccc12 | 
9.65 | 5.52 | 1.24 | 10.3 |  | 3 |  |  |  |  |  |  |  | N#Cc1ccc2c(c1)nc(NCCN1CCCC1)c1cccn12 | 
